Patent US5437980A, “Phenanthridium dye staining of nucleic acids in living cells” (Molecular Probes, Inc., priority 1993, dated 1995)
“Also recorded” adds a separate entry of the source.

Experiments:
trypanosome = settings: Watkins, J. CHEM SOC. 3059 (1952); Watkins & Woolfe; cited from earlier work
tissue culture cells = test: Entry into / staining pattern of tissue culture cells; type: cell-based
Excerpt: In some tissue culture cells, the pattern of staining is different from that observed in plant cells or bacteria. In the former case, cells are usually loaded with a brief pulse of dye, followed by a chase of buffered saline solution. These cells show a pattern of staining first in numerous intracellular compartments; e.g. lysosomes. In addition to staining these organelles first, the dyes also undergo a spectral shift to shorter wavelengths when associated with this "early-labeled compartment." If the same cells are exposed to pulses of higher concentrations of the 5-DAPP/LIVE dyes, the staining appears in the mitochondria (tubular structures that are labeled with rhodamine 123) and then, finally, in the nucleus, where it stains the nucleoli very brightly. Nucleoli are the most prominently stained area of higher eukaryotic cells, while the nuclei and cytosol usually stain in a hazy or punctate pattern in these cells. […] In plant tissues distinct nuclei tend to label uniformly, but there is frequently significant binding of the dye to cell walls. The plant cells are usually dark except for cell walls and nuclei. The characteristic binding morphology obtained using the 5-DAPP/LIVE dyes thus makes them useful in certain circumstances for identifying the type of cell in a mixed population of cells.

gram-positive bacteria = test: Staining of live gram-positive bacteria; type: cell-based; settings: general summary
living cells = test: Entry into / staining of living cells, general; type: cell-based; settings: general summary; for entry into / staining of live cells: several types of cells
DNA [1] = test: Relative DNA binding affinity, YOYO-1 over 5-DAPP/LIVE
Bacillus cereus = test: Relative rate and extent of dye uptake into living Bacillus cereus (Example 2, FIG. 1); type: cell-based; settings: 2 μM dye, 23° C., 488 nm excitation, 600 nm emission
Method: FIG. 1. Relative Uptake of Dyes into Living Cells. Uptake of ethidium, butidium, hexidium and octidium by Bacillus cereus as described in Example 2.
Bacillus cereus is grown in nutrient broth to log phase, washed by centrifugation, and resuspended in water to a density of 5×10^6 cfu/mL (as determined in Example 1). One centimeter pathlength acrylic cuvettes containing 3 mL of cell suspension are placed in a fluorescence spectrophotometer equipped with a temperature regulated cuvette holder and magnetic stirrer. The suspensions are brought to 23° C. prior to dye addition. To a cuvette of 3 mL bacteria suspension is added 3 μL of 2 mM dye stock solutions in DMSO to give a final dye concentration of 2 μM to produce the maximum attainable fluorescence/cell at the 600 nm emission wavelength (determined as in Example 1). The peak fluorescence excitation and emission wavelengths are determined by scanning the spectrum of the dye in suspensions of Bacillus cereus incubated for 30 min with the dye. Fluorescence intensity of the suspensions is measured using 488 nm excitation and 600 nm emission wavelengths. Sampling of fluorescence is carried out at 5 or 10 Hz until the fluorescence signal appears to stabilize.

[2] = tested on: free-living ciliate and flagellate protozoans; test: Staining of protozoa (Example 7); type: cell-based; settings: 1 μL of 10 mM dye in 1 mL culture, 10 min, ambient temperature
Method: 1 μL of 10 mM the 5-DAPP/LIVE dye stock is added to 1 mL of protozoan culture. The medium is incubated for 10 min at ambient temperature. 15 μL of this preparation is mounted with dye between a coverglass and the slide. Using this procedure, the nuclei of most cells of the free-living ciliate and flagellate protozoans are stained under these conditions.

[3] = tested on: epidermal tissue of the bulb, Alium spp.; test: Staining of plant cell tissue (Example 6); type: cell-based; settings: 10 μM dye, 30 min, room temperature
Method: A small section of tissue from the bulb is removed with a razor blade. 0.5 mL of a 10 μM solution of the 5-DAPP/LIVE dye in distilled water is dispensed into a small glass dish. The epidermal tissue is cut into sections and placed in the dye solution. The tissue is stained for 30 min at room temperature in the dark then the tissue preparation is mounted in the presence of the dye between a coverglass and the slide.

[4] = tested on: peripheral blood lymphocytes; test: Staining of peripheral blood lymphocytes, fluorometer (Example 11); type: cell-based, goat; settings: on the scale of seconds
Method: Peripheral blood lymphocytes (PBL) are isolated from fresh heparinized goat blood and resuspended in buffer consisting of 135 mM NaCl, 5 mM KCl, 20 mM HEPES, 1 mM CaCl2, 1 mM MgCl2, pH 7.4 (HBSS+). The cells are resuspended to 10^6 mL (as determined by direct microscopic count using a standard hemocytometer) in a final volume of 3 mL in the above buffer in a quartz cuvette. 5-DAPP/LIVE dye stocks are prepared to final concentrations of 2 mM in DMSO. 3 μL of the octidium dye stock solution is injected into the cuvette to a final concentration of 2 μM. In a fluorometer, the sample is excited at 520 nm and fluorescence emission is monitored at 600 nm over the time required for the fluorescence signal to become stable. Hexidium, butidium and ethidium bromide are injected into separate samples of PBL to determine the relative rates of uptake for these stains. The volume of dye solution added to the cuvette is corrected by a factor relating the absorbance of the dye to the absorbance of a 2 mM octidium solution.

Saccharomyces = test: Staining of yeast (Example 5); type: cell-based; settings: 10 μM dye, 30 min, 37° C.
Method: Yeast cells are washed by centrifugation and then resuspended in a solution of 2% glucose and 10 mM Na-HEPES, pH 7.4 to a cell density of between 5×10^5 and 2×10^6 cells/mL optical density at 410 nm (previously calibrated with YPD agar plate colony counts). Sufficient 10 mM stock solution of the 5-DAPP/LIVE dye in DMSO is added to effect a final concentration of 10 μM of the dye in the medium. The suspension is incubated for 30 min at 37° C. then 15 μL are placed between a coverglass and the microscope slide. The cellular fluorescence is observed using fluorescein (long-pass emission) or rhodamine filter sets.

[5] = tested on: 3T3 mouse fibroblast cells; test: Staining of nuclei in adherent cultured mammalian cells (Example 9); type: cell-based; settings: 2 μM dye; for staining distribution, chloroquine-treated cells: group 1, 300 μM chloroquine; for staining distribution, control cells: group 2, no chloroquine; for color of nucleus and cytoplasm: one half hour, long-pass fluorescein filter (red with rhodamine excitation)
Method: 3T3 mouse fibroblast cells are grown on coverslips in calf serum-supplemented DMEM medium. The coverslips of cells are washed in HBSS+. 5-DAPP/LIVE dye solutions are prepared to a final concentration of 2 μM in DMEM without serum. One group of 3T3 cells is treated with 300 μM chloroquine (group 1). These cells and control cells (group 2) not treated with chloroquine are incubated at 37° C. for 30 min. The two groups of cells are transferred to DMEM plus 5-DAPP/LIVE. The cells are incubated in the dye-containing medium for 30 min at room temperature and are subsequently washed in HBSS+and viewed by epifluorescence microscopy using a long-pass fluorescein or a rhodamine filter set.

mushroom spores = test: Staining of mushroom spores by fluorescence microscopy (Example 4); type: cell-based, agaric; settings: 10-20 μM dye, 30 min, room temperature
Method: Spores are rinsed from the gills on the underside of the cap of an agaric using a stream of distilled water. The spores are concentrated by centrifugation for 30 sec at 10,000 rpm in a microcentrifuge then a minimal volume of a 10-20 μM solution of the 5-DAPP/LIVE dye in distilled water is added. The suspension is incubated with the dye for 30 min at room temperature then a 15 μL aliquot of the suspension is mounted on between a coverglass and the slide for viewing in the presence of the dye. The cellular fluorescence is observed on a Zeiss Axioplan fluorescence microscope using fluorescein (long:pass emission) or rhodamine filter sets.

DNA [6] = test: DNA affinity (Kp) from fluorescence enhancement versus DNA concentration, microtiter plate reader; type: binding; settings: comparison in words, Table 1
Method: ^1 Fluorescence spectra obtained using a standard ratio of 200 μM
bp of DNA (bases of RNA) to 1 μM dye (standard solution) in a working
buffer (10 mM phosphate, 10% (v/v) ethanol, 1 mM EDTA and 100 mM NaCl), p
7.4. Fluorescence was measured in a Corning 96 U well plate and Cytofluor
sensitivity 4) as a function of DNA concentration from 0-100 μM at a
constant dye concentration of 0.5 μM.
^2 Fluorescence spectra obtained using the same method as above excep
the fluorescence was measured in a Cytofluor ™ 2300 (excitation filter
E (485/620); excitation D (620/640), and a sensitivity 4) as a function o
DNA concentration from 0-30 μM at a constant dye concentration of 0.1
^3 DNA affinity (Kp) determined by linear fitting of plots of
reciprocal fluorescence enhancement versus reciprocal DNA concentration,
as measured on a microtiter plate fluorescence reader (CytoFluor ™,

nucleic acids = settings: reduced ethidium, Bucana et al. (1986); cited from earlier work

Row | SMILES | membrane permeability (living cells) | entry into / staining of live cells (living cells) | rate of dye loading (Bacillus cereus) | staining of nuclei of protozoans [2] | cell wall / surface staining [3] | distribution of dye into nucleus of lymphocytes [4] | staining distribution and intensity (Saccharomyces) | staining distribution, chloroquine-treated cells [5] | staining distribution, control cells [5] | color of nucleus and cytoplasm [5] | fraction of spores brightly stained (mushroom spores) | further results
1 | C[n+]1c(-c2ccccc2)c2cc(N)ccc2c2ccc(N)cc21 [methidium] | – | – | – | – | – | – | – | – | – | – | – | trypanocidal effectiveness / therapeutic potential (trypanosome): less effective than ethidium
2 | Nc1ccc2c(c1)c(-c1ccccc1)[n+](CCc1ccccc1)c1cc(N)ccc21 [phenethidium] | marked enhancement of membrane permeability in all systems | facilitates entry of the 5-DAPP dye into living cells, but at a rate that is typically slower than derivatives in which the substituent is a C4 to C8 alkyl group | – | – | – | – | – | – | – | – | – | time to enter tissue culture cells (tissue culture cells): ≥ 1 h; entry into gram positive bacteria (gram-positive bacteria): enters gram positive bacteria
3 | C[n+]1c(C=C2C=CN(CCC[N+](C)(C)CCC[N+](C)(C)CCCN3C=CC(=Cc4oc5ccccc5[n+]4C)c4ccccc43)c3ccccc32)oc2ccccc21 [YOYO-1, reference compound] | virtual impermeability | – | – | – | – | – | – | – | – | – | – | DNA binding affinity of YOYO-1 over 5-DAPP/LIVE (DNA [1]): hundred
4 | CCCCCCCC[n+]1c(-c2ccccc2)c2cc(N)ccc2c2ccc(N)cc21 [octidium] | marked enhancement of membrane permeability in all systems | enters cell membranes quickly; also recorded: becomes bright with continued incubation | increases with carbon chain length | better than butidium and ethidium | more hazy surface staining occurs with ethidium and butidium than with hexidium or octidium | virtually instantaneous | somewhat less bright than hexidium staining; also recorded: markedly less cytoplasmic staining than any of the other forms | stained throughout, but with a greater relative intensity of staining in the nucleus | relatively equal staining in the nucleus and cytoplasm | orange | about 10% | nuclear staining / staining [3]: stains identically to hexidium; fraction of yeast with stained nuclei (Saccharomyces): less than 100%
5 | CCCC[n+]1c(-c2ccccc2)c2cc(N)ccc2c2ccc(N)cc21 [butidium] | limited permeability in most cells | enters live cells slowly and is usually not very bright | increases with carbon chain length | octidium which is better than butidium and ethidium | more hazy surface staining | virtually instantaneous | more punctate cytoplasmic inclusions stained | stained throughout, but with a greater relative intensity of staining in the nucleus | relatively equal staining in the nucleus and cytoplasm | orange | about 10% | binding affinity versus longer chain versions (DNA [6]): higher binding affinity than the tested longer chain versions; staining of spores (in words) (mushroom spores): stains all spores
6 | CCN1c2cc(N)ccc2-c2ccc(N)cc2C1c1ccccc1 (stereo not shown) [dihydrophenanthridine derivative] | – | – | – | – | – | – | – | – | – | – | – | nucleic acid binding (nucleic acids): does not bind to nucleic acids
